These results are taken from patent US9833497B2, “Human originated EGF domain proteins and use of the same” (CHENGDU SOURCEBIO LIMITED-LIABILITY COMPANY, priority 2013, dated 2017).

What all share (format): cell-based
The test system of one assay is Enterobacter cloacae. The assay can be described thus: MIC against Gram-negative bacteria: Enterobacter cloacae. Conditions: 96-well plate, 5×10^5 CFU/mL, 37° C., 10 h. In outline: (§1)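 MIC, the lowest recombinant protein concentration giving no bacterial growth, found by two-fold serial dilution of human EGF-domain proteins in triplicate. Inoculum 5×10^5 CFU/mL in LB from cultures at McFarland 0.5; plates incubated at 37° C, 175 rpm shaking.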

In a further assay the test system is Aeromonas hydrophila. The assay can be described thus: MIC against Gram-negative bacteria: Aeromonas hydrophila. The following applies: 96-well plate, 5×10^5 CFU/mL, 37° C., 10 h. In outline: as §1
The subject of a further assay is E. coli BL21. Description: MIC against Gram-negative bacteria: E. coli BL21. Conditions: 96-well plate, 5×10^5 CFU/mL, 37° C., 10 h. In outline:
as §1

The next assay relates to Pseudomonas aeruginosa. The assay can be described thus: MIC against Gram-negative bacteria: Pseudomonas aeruginosa. Conditions: 96-well plate, 5×10^5 CFU/mL, 37° C., 10 h. Put shortly: as §1
A further assay has as its system Moraxella catarrhalis. The assay can be described thus: MIC against Gram-negative bacteria: Moraxella catarrhalis. Conditions: 96-well plate, 5×10^5 CFU/mL, 37° C., 10 h. Put shortly:
as §1

A further assay deals with Klebsiella pneumonia. The assay can be described thus: MIC against Gram-negative bacteria: Klebsiella pneumonia. Conditions: 96-well plate, 5×10^5 CFU/mL, 37° C., 10 h. Put shortly: as §1
Another assay has as its system Proteus mirabilis. The assay can be described thus: MIC against Gram-negative bacteria: Proteus mirabilis. Conditions: 96-well plate, 5×10^5 CFU/mL, 37° C., 10 h. In outline: as §1
The test system of a further assay is Proteus vulgaris. Description: MIC against Gram-negative bacteria: Proteus vulgaris. Conditions: 96-well plate, 5×10^5 CFU/mL, 37° C., 10 h. Put shortly: as §1
The next assay deals with Citrobacter diversus. The assay can be described thus: MIC against Gram-negative bacteria: Citrobacter diversus. The following applies: 96-well plate, 5×10^5 CFU/mL, 37° C., 10 h. In outline:
as §1

The next assay concerns E. coli DH5α. Description: Antibacterial activity: MIC and growth curve against E. coli DH5α in 96-well plate. The following applies: minimal inhibitory concentration against E. coli DH5α; 96-well plate, 5×10^5 CFU/mL, 37° C., judged after 8 h. Put shortly:
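MIC taken as lowest protein level with no bacterial growth, tracked by A600 every 30 min during 37 °C, 175 rpm culture. Two-fold protein series 50-12.5 μg/mL final, triplicate wells, against 5×10^5 CFU/mL of LB-washed mid-log cells.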

For a further assay, the system named is Serratia marcescens. The assay can be described thus: MIC against Gram-negative bacteria: Serratia marcescens. Conditions: 96-well plate, 5×10^5 CFU/mL, 37° C., 10 h. In outline: as §1

The MIC is the least concentration at which growth counts as inhibited. The low end stands for greater potency, the high end for weaker potency. Take “PRT515 (CHCDPIGSLNEVCVKDEKHARRGLAPGSCHCKTGFGGVSCDRCARGYTGYPDCKA; listed as Homo sapiens)”: the “MIC against E. cloacae” value in the assay with Enterobacter cloacae amounted to 25 µg/mL. In addition, the “MIC against A. hydrophila” value in the assay with Aeromonas hydrophila turned out to be 50 µg/mL. Further, the “MIC against E. coli BL21” value against E. coli BL21 is 12.5 µg/mL. The “MIC against P. aeruginosa” value against Pseudomonas aeruginosa worked out at 25 µg/mL. For the same substance, in the assay on Moraxella catarrhalis, the “MIC against M. catarrhalis” value came to 100 µg/mL. Further, the “MIC against K. pneumonia” value against Klebsiella pneumonia is 12.5 µg/mL. The “MIC against P. mirabilis” value against Proteus mirabilis amounted to 50 µg/mL. The “MIC against P. vulgaris” value with Proteus vulgaris stood at 12.5 µg/mL. Also, the “MIC against C. diversus” value in the assay with Citrobacter diversus amounted to 25 µg/mL. Further, the MIC in the assay with E. coli DH5α turned out to be 25 µg/mL. In the assay with Serratia marcescens, the “MIC against S. marcescens” value was 50 µg/mL.
On to “PRT1259 (CAVNNGGCDRTCKDTATGVRCSCPVGFTLQPDGKTC; listed as Homo sapiens)”, for which the “MIC against E. cloacae” value in the assay with Enterobacter cloacae (Enterobacter cloacae) was 25 µg/mL. The “MIC against A. hydrophila” value in the assay on Aeromonas hydrophila (Aeromonas hydrophila) worked out at 50 µg/mL. The “MIC against E. coli BL21” value with E. coli BL21 (E. coli BL21) was 50 µg/mL. For the same substance, the “MIC against P. aeruginosa” value with Pseudomonas aeruginosa (Pseudomonas aeruginosa) came out at 25 µg/mL. In the assay with Moraxella catarrhalis (Moraxella catarrhalis), the “MIC against M. catarrhalis” value is 50 µg/mL. Moreover, in the assay with Klebsiella pneumonia (Klebsiella pneumonia), the “MIC against K. pneumonia” value came out at 12.5 µg/mL. In addition, the “MIC against P. mirabilis” value against Proteus mirabilis (Proteus mirabilis) came out at 12.5 µg/mL. For the same substance, the “MIC against P. vulgaris” value in the assay with Proteus vulgaris (Proteus vulgaris) worked out at 50 µg/mL. The “MIC against C. diversus” value with Citrobacter diversus (Citrobacter diversus) was found to be 12.5 µg/mL. The substance further had an MIC in the assay with E. coli DH5α of 25 µg/mL. In the assay with Serratia marcescens (Serratia marcescens), the “MIC against S. marcescens” value was determined as 12.5 µg/mL.
For “PRT527 (CPCPHTNSFATGCVVNGGDVRCSCKAGYTGTQCERCAPGYFGNPQKFGGSCQP; listed as Homo sapiens)”, in the assay with Enterobacter cloacae, the “MIC against E. cloacae” value amounted to 25 µg/mL. Further, the “MIC against A. hydrophila” value in the assay on Aeromonas hydrophila was found to be 50 µg/mL. Also, the “MIC against E. coli BL21” value in the assay on E. coli BL21 stood at 12.5 µg/mL. Moreover, the “MIC against P. aeruginosa” value with Pseudomonas aeruginosa is 50 µg/mL. In addition, the “MIC against M. catarrhalis” value with Moraxella catarrhalis worked out at 12.5 µg/mL. The “MIC against K. pneumonia” value in the assay with Klebsiella pneumonia came out at 12.5 µg/mL. Moreover, the “MIC against P. mirabilis” value with Proteus mirabilis was 25 µg/mL. Further, the “MIC against P. vulgaris” value against Proteus vulgaris stood at 50 µg/mL. For the same substance, the “MIC against C. diversus” value against Citrobacter diversus was 25 µg/mL. In the assay with E. coli DH5α, this substance had a minimal inhibitory concentration (MIC) of 50 µg/mL. Further, in the assay with Serratia marcescens, the “MIC against S. marcescens” value was 25 µg/mL.
Turning to “PRT42 (CQCNGHSKCINQSICEKCENLTTGKHCETCISGFYGDPTNGGKCQP; listed as Homo sapiens)”, in the assay with Enterobacter cloacae (Enterobacter cloacae), the “MIC (μg/mL) E. cloacae” value was determined as 25 µg/mL. Besides, the “MIC (μg/mL) A. hydrophila” value in the assay on Aeromonas hydrophila (Aeromonas hydrophila) turned out to be 12.5 µg/mL. The “MIC (μg/mL) E. coli BL21” value with E. coli BL21 (E. coli BL21) worked out at 12.5 µg/mL. Also, the “MIC (μg/mL) P. aeruginosa” value in the assay with Pseudomonas aeruginosa (Pseudomonas aeruginosa) was found to be 25 µg/mL. For the same substance, in the assay with Moraxella catarrhalis (Moraxella catarrhalis), the “MIC (μg/mL) M. catarrhalis” value was determined as 12.5 µg/mL. In addition, the “MIC (μg/mL) K. pneumonia” value against Klebsiella pneumonia (Klebsiella pneumonia) was 12.5 µg/mL. Besides, the “MIC (μg/mL) P. mirabilis” value against Proteus mirabilis (Proteus mirabilis) came to 25 µg/mL. Moreover, the “MIC (μg/mL) P. vulgaris” value in the assay with Proteus vulgaris (Proteus vulgaris) came out at 100 µg/mL. Moreover, in the assay on Citrobacter diversus (Citrobacter diversus), the “MIC (μg/mL) C. diversus” value worked out at 25 µg/mL. Besides, the MIC against E. coli DH5α was determined as 25 µg/mL. Also, the “MIC (μg/mL) S. marcescens” value against Serratia marcescens (Serratia marcescens) was determined as 50 µg/mL.
On to “PRT1211 (LSPYCKDEPCKNGGTCFDSLDGAVCQCDSGFRGERCQ; listed as Homo sapiens)”, for which the “MIC against E. cloacae” value in the assay on Enterobacter cloacae (Enterobacter cloacae) was 50 µg/mL. Also, the “MIC against A. hydrophila” value against Aeromonas hydrophila (Aeromonas hydrophila) was 25 µg/mL. Further, the “MIC against E. coli BL21” value against E. coli BL21 (E. coli BL21) came out at 25 µg/mL. The “MIC against P. aeruginosa” value with Pseudomonas aeruginosa (Pseudomonas aeruginosa) is 12.5 µg/mL. Moreover, in the assay with Moraxella catarrhalis (Moraxella catarrhalis), the “MIC against M. catarrhalis” value is 25 µg/mL. The “MIC against K. pneumonia” value against Klebsiella pneumonia (Klebsiella pneumonia) worked out at 25 µg/mL. The “MIC against P. mirabilis” value with Proteus mirabilis (Proteus mirabilis) stood at 50 µg/mL. Besides, in the assay with Proteus vulgaris (Proteus vulgaris), the “MIC against P. vulgaris” value was found to be 25 µg/mL. Also, in the assay on Citrobacter diversus (Citrobacter diversus), the “MIC against C. diversus” value was found to be 12.5 µg/mL. In addition, the MIC against E. coli DH5α was 50 µg/mL. The “MIC against S. marcescens” value with Serratia marcescens (Serratia marcescens) turned out to be 12.5 µg/mL.
